Experimental data as given in PubChem BioAssay AID328 (DTP/NCI, 2004).
Several values for one entry are separate records, joined by “and”; a condition that tells them apart may be missing. Equal entries are not always repeated. Inconclusive results and toxic doses are left out.

Tested on: BDF1 mice, P388 leukemia ip, median survival T/C
Assay: NCI In Vivo Anticancer Drug Screen. Data for tumor model P388 Leukemia (intraperitoneal) in B6D2F1 (BDF1) mice
Settings: endpoint: median survival time, higher = longer survival
How it was run: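 Read-out is survival of treated animals expressed relative to the vehicle group, as a T/C ratio.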

COc1cc2cc3c4cc(OC)c(OC)cc4cc[n+]3c(C)c2cc1OC (tested in a mixture with another compound)
T/C (dose: 8.0 mg/kg/injection, schedule: Q01DX008 (ip), vehicle: other): 156 % of control | T/C (dose: 8.0 mg/kg/injection, schedule: Q01DX009 (ip), vehicle: clinical formulation): 155 % of control | T/C (dose: 8.0 mg/kg/injection, schedule: Q03HX008 (ip), vehicle: other): 111 % of control | T/C (dose: 9.3 mg/kg/injection, schedule: Q01DX009 (ip), vehicle: saline): 150 % of control | T/C (dose: 12.5 mg/kg/injection, schedule: Q04DX003 (ip), vehicle: other): 121 % of control | T/C (dose: 16.0 mg/kg/injection, schedule: Q01DX008 (ip), vehicle: other): 154 % of control | T/C (dose: 16.0 mg/kg/injection, schedule: Q01DX008 (ip), vehicle: water): 163 % of control | T/C (dose: 16.0 mg/kg/injection, schedule: Q01DX009 (ip), vehicle: Klucel (hydroxypropylcellulose) (HPC)): 157 % of control | T/C (dose: 16.0 mg/kg/injection, schedule: Q01DX009 (ip), vehicle: clinical formulation): 161 % of control | T/C (dose: 16.0 mg/kg/injection, schedule: Q01DX009 (oral), vehicle: other): 94 % of control | T/C (dose: 16.0 mg/kg/injection, schedule: Q01DX009 (sc), vehicle: other): 101 % of control | T/C (dose: 16.0 mg/kg/injection, schedule: Q03HX016 (ip), vehicle: other): 153 % of control | T/C (dose: 16.0 mg/kg/injection, schedule: Q03HX024 (ip), vehicle: other): 174 % of control | T/C (dose: 32.0 mg/kg/injection, schedule: Q01DX008 (ip), vehicle: Klucel (hydroxypropylcellulose) (HPC)): 182 % of control | T/C (dose: 32.0 mg/kg/injection, schedule: Q01DX008 (ip), vehicle: other): 167 % of control | T/C (dose: 32.0 mg/kg/injection, schedule: Q01DX008 (ip), vehicle: water): 163 % of control | T/C (dose: 32.0 mg/kg/injection, schedule: Q01DX009 (ip), vehicle: Klucel (hydroxypropylcellulose) (HPC)): 186 % of control | T/C (dose: 32.0 mg/kg/injection, schedule: Q01DX009 (ip), vehicle: clinical formulation): 211 % of control | T/C (dose: 32.0 mg/kg/injection, schedule: Q01DX009 (oral), vehicle: other): 103 % of control | T/C (dose: 32.0 mg/kg/injection, schedule: Q01DX009 (sc), vehicle: other): 115 % of control | T/C (dose: 32.0 mg/kg/injection, schedule: Q03HX016 (ip), vehicle: other): 182 % of control | T/C (dose: 32.0 mg/kg/injection, schedule: Q03HX024 (ip), vehicle: other): 190 % of control | T/C (dose: 37.5 mg/kg/injection, schedule: Q01DX009 (ip), vehicle: saline): 175 % of control | T/C (dose: 37.5 mg/kg/injection, schedule: Q04DX003 (ip), vehicle: saline): 162 % of control | T/C (dose: 46.7 mg/kg/injection, schedule: Q04DX003 (ip), vehicle: alkali diluted with saline): 165 % of control | T/C (dose: 50.0 mg/kg/injection, schedule: Q04DX002 (ip), vehicle: saline): 154 % of control | T/C (dose: 50.0 mg/kg/injection, schedule: Q04DX003 (ip), vehicle: saline): 157 % of control | T/C (dose: 50.0 mg/kg/injection, schedule: Q04DX003 (ip), vehicle: water): 158 % of control | T/C (dose: 64.0 mg/kg/injection, schedule: Q01DX001 (ip), vehicle: other): 120 % of control | T/C (dose: 64.0 mg/kg/injection, schedule: Q01DX001 (oral), vehicle: other): 100 % of control | T/C (dose: 64.0 mg/kg/injection, schedule: Q01DX001 (sc), vehicle: other): 103 % of control | T/C (dose: 64.0 mg/kg/injection, schedule: Q01DX008 (ip), vehicle: Klucel (hydroxypropylcellulose) (HPC)): 208 % of control | T/C (dose: 64.0 mg/kg/injection, schedule: Q01DX008 (ip), vehicle: other): 206 % of control | T/C (dose: 64.0 mg/kg/injection, schedule: Q01DX008 (ip), vehicle: water): 185 % of control | T/C (dose: 64.0 mg/kg/injection, schedule: Q01DX009 (ip), vehicle: Klucel (hydroxypropylcellulose) (HPC)): 182 % of control and 203 % of control | T/C (dose: 64.0 mg/kg/injection, schedule: Q01DX009 (ip), vehicle: clinical formulation): 194 % of control | T/C (dose: 64.0 mg/kg/injection, schedule: Q01DX009 (oral), vehicle: other): 107 % of control | T/C (dose: 64.0 mg/kg/injection, schedule: Q04DX003 (ip), vehicle: other): 161 % of control and 163 % of control | T/C (dose: 64.0 mg/kg/injection, schedule: Q04DX003 (ip), vehicle: water): 159 % of control | T/C (dose: 75.0 mg/kg/injection, schedule: Q01DX001 (ip), vehicle: saline): 154 % of control | T/C (dose: 75.0 mg/kg/injection, schedule: Q01DX009 (ip), vehicle: saline): 183 % of control | T/C (dose: 75.0 mg/kg/injection, schedule: Q04DX003 (ip), vehicle: saline): 158 % of control | T/C (dose: 77.8 mg/kg/injection, schedule: Q04DX003 (ip), vehicle: alkali diluted with saline): 165 % of control | T/C (dose: 86.4 mg/kg/injection, schedule: Q04DX003 (ip), vehicle: other): 193 % of control | T/C (dose: 100.0 mg/kg/injection, schedule: Q04DX002 (ip), vehicle: saline): 154 % of control and 169 % of control | T/C (dose: 100.0 mg/kg/injection, schedule: Q04DX003 (ip), vehicle: other): 155 % of control | T/C (dose: 100.0 mg/kg/injection, schedule: Q04DX003 (ip), vehicle: water): 200 % of control | T/C (dose: 128.0 mg/kg/injection, schedule: Q01DX001 (oral), vehicle: other): 98 % of control | T/C (dose: 128.0 mg/kg/injection, schedule: Q01DX001 (sc), vehicle: other): 100 % of control | T/C (dose: 128.0 mg/kg/injection, schedule: Q01DX008 (ip), vehicle: other): 156 % of control | T/C (dose: 128.0 mg/kg/injection, schedule: Q01DX009 (ip), vehicle: Klucel (hydroxypropylcellulose) (HPC)): 186 % of control | T/C (dose: 128.0 mg/kg/injection, schedule: Q01DX009 (oral), vehicle: other): 103 % of control | T/C (dose: 128.0 mg/kg/injection, schedule: Q01DX009 (sc), vehicle: other): 159 % of control | T/C (dose: 128.0 mg/kg/injection, schedule: Q04DX003 (ip), vehicle: Klucel (hydroxypropylcellulose) (HPC)): 156 % of control | T/C (dose: 128.0 mg/kg/injection, schedule: Q04DX003 (ip), vehicle: other): 167 % of control and 175 % of control | T/C (dose: 128.0 mg/kg/injection, schedule: Q08DX002 (ip), vehicle: other): 155 % of control | T/C (dose: 130.0 mg/kg/injection, schedule: Q04DX003 (ip), vehicle: alkali diluted with saline): 180 % of control | T/C (dose: 144.0 mg/kg/injection, schedule: Q04DX003 (ip), vehicle: other): 207 % of control | T/C (dose: 150.0 mg/kg/injection, schedule: Q01DX001 (ip), vehicle: saline): 150 % of control | T/C (dose: 150.0 mg/kg/injection, schedule: Q04DX003 (ip), vehicle: saline): 175 % of control | T/C (dose: 200.0 mg/kg/injection, schedule: Q04DX002 (ip), vehicle: saline): 163 % of control and 176 % of control | T/C (dose: 200.0 mg/kg/injection, schedule: Q04DX003 (ip), vehicle: other): 189 % of control | T/C (dose: 216.0 mg/kg/injection, schedule: Q04DX003 (ip), vehicle: alkali diluted with saline): 205 % of control | T/C (dose: 256.0 mg/kg/injection, schedule: Q01DX001 (oral), vehicle: other): 103 % of control | T/C (dose: 256.0 mg/kg/injection, schedule: Q01DX001 (sc), vehicle: other): 108 % of control | T/C (dose: 256.0 mg/kg/injection, schedule: Q01DX009 (oral), vehicle: other): 112 % of control | T/C (dose: 256.0 mg/kg/injection, schedule: Q04DX003 (ip), vehicle: Klucel (hydroxypropylcellulose) (HPC)): 156 % of control | T/C (dose: 256.0 mg/kg/injection, schedule: Q04DX003 (ip), vehicle: other): 206 % of control and 208 % of control | T/C (dose: 256.0 mg/kg/injection, schedule: Q08DX002 (ip), vehicle: other): 174 % of control | T/C (dose: 300.0 mg/kg/injection, schedule: Q01DX001 (ip), vehicle: saline): 166 % of control | T/C (dose: 300.0 mg/kg/injection, schedule: Q04DX003 (ip), vehicle: saline): 220 % of control | T/C (dose: 400.0 mg/kg/injection, schedule: Q04DX002 (ip), vehicle: saline): 163 % of control | T/C (dose: 512.0 mg/kg/injection, schedule: Q01DX001 (oral), vehicle: other): 99 % of control | T/C (dose: 512.0 mg/kg/injection, schedule: Q01DX001 (sc), vehicle: other): 107 % of control | T/C (dose: 512.0 mg/kg/injection, schedule: Q01DX009 (oral), vehicle: other): 112 % of control
